The text below walks through data of patent US20250320190A1, “Novel Inhibitors of Leucine Carboxyl Methyltransferase-1 (LCMT-1) and Methods of Use Thereof” (Temple University-Of The Commonwealth System of Higher …, priority 2024, published 2025).

The subject of data set [1] is MDA-MB-231 cells. In words: Cell cycle analysis (BrdU flow cytometry). In kind it is cell-based, human. The settings on record: 20 μM, 24 hours. How it is done: (§1) MCF7, MDA-MB-231 and Rosi cells were seeded in 6-well tissue culture plates (Celltreat) at a density of 5×10^5 cells per well. After 24 hours, the DMEM was changed to media containing 20 μM LB-100 or Compound 2. Control cells were given fresh media. After 24 hours, cells were labeled with 50 μM bromodeoxyuridine (BrdU, BioGems, Westlake Village, California, catalog #5911439). Cells were lifted with 0.25% trypsin, 2.21 mM ethylenediaminetetraacetic acid (Corning catalog #25-053-CI) after 4 hours and fixed with 70% ethanol overnight at 4° C. Cells were pelleted and cellular DNA was denatured with HCl. After neutralization with 1 M Tris, pH 8.5, cells were labeled with FITC-anti-BrdU (Biolegend, San Diego, California, catalog #364104, 5 μL/100 μL cell suspension) and 7-aminoactinomycin-D (7-AAD, Biolegend, catalog #420404, 1 μL/100 μL cell suspension). Cells were analyzed with a Becton-Dickinson FACSymphony™ flow cytometer. Cell cycle analyses were performed three times.

The subject of data set [2] is Rosi cells. Description: Cell cycle analysis (BrdU flow cytometry). The conditions noted are these: 20 μM, 24 hours. Format: cell-based, human. On the procedure:
as §1

For data set [3], the system named is MCF7 cells. In words: Cell cycle analysis (BrdU flow cytometry). The settings on record: 20 μM, 24 hours. Format: cell-based, human. On the procedure: as §1
In data set [4] the test system is MDA-MB-231 cells. In words: Annexin V assay. In kind it is cell-based, human. The settings on record: 5-20 μM, 48 hours. How it is done:
(§2) MCF7, MDA-MB-231 and Rosi cells were treated with LB-100 and Compound 2 at 5-20 μM concentrations. After 48 hours, cells were lifted with Accutase and washed twice with PBS (pH 7.4) with 10% FBS. Cells were resuspended in annexin V binding buffer (10 mM HEPES (pH 7.4), 140 mM NaCl and 2.5 mM CaCl2)) and labeled with FITC-anti-Annexin V and 7-AAD (Biolegend, FITC Annexin V Apoptosis Detection Kit with 7-AAD, catalog #640922). Cell surface annexin V expression was assessed with flow cytometry.

Data set [5] deals with Rosi cells. Description: Annexin V assay. In kind it is cell-based, human. The settings on record: 5-20 μM, 48 hours. On the procedure:
as §2

Data set [6] concerns MDA-MB-231 cells. Description: Cytotoxicity assay (calcein-AM). In kind it is cell-based, human. The settings on record: Homo sapiens, MDA-MB-231, 48 h, read-out: Log [μM] EC50 (converted). How it is done: (§3) HS-5, HEK-293, MCF7, MDA-MB-231 and Rosi cells were seeded in 96-well optical bottom tissue culture plates (Corning, New York) at a density of 2.5×10^3 cells/well. After 24 hours, the media were changed to media containing LB-100 (Cayman Chemical Company, Ann Arbor, Michigan) or Compound 2 at various concentrations (50-0.31 μM). Control cells were given fresh media. After 48 hours the media were aspirated and plates were washed with warmed Dulbecco's phosphate-buffered saline (DPBS) with calcium and magnesium (Sigma-Aldrich, catalog #D1283). Cells were stained with 3 μM calcein-AM (AAT Bioquest, Pleasanton, California, catalog #22002) in DPBS for 30 minutes in the dark at 37° C. Plates were immediately read with a Biotek fluorescent plate reader (excitation 485 nm, emission 520 nm). The cytotoxicity assays were performed at least three times, each time with six replicates per condition.

For data set [7], the system named is MCF7 cells. Description: Cytotoxicity assay (calcein-AM). In kind it is cell-based, human. How it is done:
as §3

For data set [8], the system named is Rosi cells. Description: Cytotoxicity assay (calcein-AM). Format: cell-based, human. On the procedure: as §3, with “After 24 hours, the media were changed to media containing LB-100 (Cayman Chemical Company, Ann Arbor, Michigan) or Compound 2 at various concentrations (50-0.31 μM).” left out
The subject of the next data set is HS-5 cells. Description: Cytotoxicity assay (calcein-AM). In kind it is cell-based. On the procedure: as §3
The test system of another data set is HEK-293 cells. Description: Cytotoxicity assay (calcein-AM). In kind it is cell-based. How it is done:
as §3

In data set [9] the test system is MDA-MB-231 cells. Description: Colony forming assay. In kind it is cell-based, human. The conditions noted are these: 50-3.25 μM, one week. How it is done:
(§4) MCF7, MDA-MB-231 and Rosi cells were seeded in 96-well tissue culture plates (Celltreat, Pepperell, Massachusetts) at a density of 90 cells per well (Mayr et al. Int J Mol Sci. 2018; 19(3)). After 24 hours, the media were changed to media containing LB-100 or Compound 2 at various concentrations (50-3.25 μM). Control cells were given fresh media. After one week the media were aspirated and the wells were washed with PBS. Cells were stained with crystal violet solution (0.25 g crystal violet in 20% methanol) for 10 minutes. The wells were washed 6 times with PBS to remove excess crystal violet. Colonies were counted with an ECHO Revolve hybrid microscope at 1.5× magnification. There were ten replicates for each condition.

For data set [10], the system named is Rosi cells. In words: Colony forming assay. In kind it is cell-based, human. The settings on record: 50-3.25 μM, one week. How it is done:
as §4

The subject of data set [11] is MCF7 cells. In words: Colony forming assay. In kind it is cell-based, human. The settings on record: 50-3.25 μM, one week. How it is done:
as §4

In the next data set the target is T1, rhLCMT-1 (Homo sapiens, UniProt Q9UIC8).
T1 construct: purchased SignalChem (Richmond, British Columbia, Canada)
In words: rhLCMT-1 activity assay (dot immunoblot). In kind it is biochemical. The conditions noted are these: each inhibitor 50 μM; 20 μM SAM; 37° C. for 30 minutes. On the procedure: Recombinant human LCMT-1 (rhLCMT-1) and rhPP2Ac were obtained from SignalChem (Richmond, British Columbia, Canada). Methyltransferase assays were performed with 100 ng rhLCMT-1 and 91.62 ng rhPP2Ac (2:1 molar ratio) (28) in reaction buffer containing 20 mM Tris (pH 8.0), 50 mM NaCl, 1 mM EDTA. rhLCMT-1 was incubated with Compound 1 (Chemspace, San Jose, California), Compound 2 (Akos Consulting and Solutions, Amtsgericht, Freiburg, Germany) or sinefungin, a SAM analogue, (Active Motif, Carlsbad, California), each at 50 μM final concentration, for 10 minutes at room temperature. rhPP2Ac was added to the reactions with 20 μM (final concentration) SAM (New England Biolabs, Ipswich, Massachusetts, FIG. 9). […] Reactions were incubated at 37° C. for 30 minutes (FIG. 10). Because the inhibitors gave false positive results with the secondary reactions used in colorimetric and bioluminescent methyltansferase assays, LCMT-1 activity was assessed using dot immunoblots. Reactions were applied to nitrocellulose membranes (Cytiva, Marlborough, Massachusetts). […] Membranes were treated with infrared (IR)-dye anti-mouse antibody (Li-Cor, Lincoln, Nebraska, catalog #926-32210, 1:20,000 dilution) and densities were measured with Li-Cor Image Studio (version 5.2) software. rhLCMT-1 inhibition assays were performed three times, each time with five replicates for each condition.

In data set [12] the test system is MDA-MB-231 cells. Description: Western blots. In kind it is cell-based, human. The settings on record: 20 μM, Compound 2 significant at 4 hours. On the procedure:
(§5) MCF7, MDA-MB-231 and Rosi cells were treated with Compound 1 or Compound 2 at a concentration of 20 μM in complete medium, and lysates were harvested after 2, 4, 6, 8 and 12 hours in radioimmunoprecipitation assay buffer containing protease inhibitors (Boster Bio, Pleasanton, California, catalog #AR1182-1) and phosphatase inhibitors (Santa Cruz Biotechnology catalog #sc-45044 and #sc-45045). Protein concentrations were measured with a bicinchoninic acid assay (G-Biosciences, Saint Louis, Missouri). Fifty micrograms of each lysate were used for bis-tris polyacrylamide gel electrophoresis. Resolved lysates were transferred to nitrocellulose membranes. Membranes were blocked with TBS with 5% bovine serum albumin before incubation with primary antibodies.
(§6) Antibodies obtained from Cell Signaling Technology (Danvers Massachusetts) were, anti-PP2Ac (catalog #2038, 1:1,000 dilution), anti-phospho-adenosine monophosphate-activated protein kinase (pAMPKα2 threonine 172, catalog #2535, 1:1,000 dilution). Antibodies obtained from Proteintech (Rosemont, Illinois) include anti-phospho-receptor-interacting serine/threonine protein kinase-1 antibodies (pRIPK1 serine 161 (catalog #66854-1-Ig, 1:1,000 dilution) and pRIPK1 serine 166 (catalog #28252-1-AP, 1:10,000 dilution), anti-mixed lineage kinase domain like pseudokinase (MLKL, catalog #66675-1-Ig, 1:5,000 dilution), anti-AMPKα2, anti-phospho-acetyl-coenzyme A carboxylase (pACC1 serine 79, catalog #29119-1-AP, 1:1,000 dilution), anti-ACC1 (catalog #21923-1-AP, 1:2,000 dilution) and anti-β-actin (catalog #66009-1-Ig, 1:50,000 dilution). The anti-RIPKI antibody was obtained from AbClonal (Woburn, Massachusetts, catalog #A7414, 1:750 dilution). The anti-phospho-MLKL antibody was obtained from R&D Systems (Minneapolis, Minnesota, 1:1,000 dilution). The LCMT-1 antibody was obtained from Origene (Rockville, Maryland, catalog #TA503127S, 1:2,000 dilution). Appropriate IR-dye secondary antibodies were used (Alexa Fluor® 790-conjugated anti-mouse (catalog #115-655-146, 1:50,000 dilution), Alexa Fluor® 680-conjugated anti-mouse (catalog #115-625-146, 1:50,000 dilution), and Alexa Fluor® 680-conjugated anti-rabbit (catalog #115-625-144, 1:50,000 dilution) were obtained from Jackson ImmunoResearch Laboratories (West Grove, Pennsylvania). Band densities were normalized to β-actin, the endogenous control. At least five replicates were used for statistical analyses.

Data set [13] relates to Rosi cells. Description: Western blots. In kind it is cell-based, human. The conditions noted are these: 20 μM, Compound 2 significant at 6 hours. How it is done:
as §5, §6

The test system of data set [14] is MCF7 cells. In words: Western blots. In kind it is cell-based, human. The settings on record: 20 μM, lysates after 2, 4, 6, 8 and 12 hours. On the procedure: as §5, §6
A further data set in a line: Plasma protein binding. The settings on record: read-out: Plasma Protein Binding (bound fraction) (converted). Format: in vitro ADME. The source says:
(§7) There is no cause for concern at this stage since there are multiple strategies and reagents for enhancing aqueous solubility for animal in vivo studies (Savjani, K. T., A. K. Gajjar and J. K. Savjani, 2012, ISRN Pharm 2012: 195727.). […] While target tissue exposure is dependent on free, unbound fractions in the plasma, plasma protein binding can protect compounds from hepatic metabolism. Thus, in vivo metabolism and excretion are often determined by a balance between these two properties. In vivo half-life is a complicated property impacted upon by multiple factors and is difficult to predict. […] While these numbers are somewhat low for a drug candidate, they are acceptable for proof of concept tool molecules which can be given multiple times per day and at higher doses to saturate metabolism.

The nature of a further data set: Kinetic solubility. In kind it is physicochemical. The conditions noted are these: 2% dimethylsulfoxide/PBS, aqueous buffer, kinetic from dmso stock; read-out: Max. Kinetic Solubility.
From the text: as §7

Data set [15] can be described thus: Liver microsomal stability. Format: in vitro ADME.
From the text: as §7

A further data set in a line: Plasma stability. Format: in vitro ADME. The conditions noted are these: mouse plasma; read-out: Plasma Stability (t1/2).
From the text: as §7

In brackets after ≈: the same amount, converted by molar mass. Some results are limits rather than exact numbers.

T1 sequence (Q9UIC8 whole entry): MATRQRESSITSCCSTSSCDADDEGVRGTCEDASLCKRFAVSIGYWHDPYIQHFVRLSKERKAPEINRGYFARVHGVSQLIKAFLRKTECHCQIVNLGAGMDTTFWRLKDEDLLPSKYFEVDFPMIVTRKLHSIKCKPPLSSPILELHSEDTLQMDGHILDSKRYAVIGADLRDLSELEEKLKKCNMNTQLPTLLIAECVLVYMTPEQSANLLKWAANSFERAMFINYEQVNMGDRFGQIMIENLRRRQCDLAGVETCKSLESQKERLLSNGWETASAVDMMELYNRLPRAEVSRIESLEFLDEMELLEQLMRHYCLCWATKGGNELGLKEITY

In the case of `CN1CCN(C(=O)C2C(C(=O)O)[C@H]3CC[C@@H]2O3)CC1` (some centres unmarked) [LB-100, reference compound], the cell cycle effect result was “induced G2/M-phase arrest” with MDA-MB-231 cells [1], “induced G2/M-phase arrest” in the data set on Rosi cells [2] and “induced G0/G1 arrest” in the data set with MCF7 cells [3]. The “apoptosis (cell surface annexin V expression)” value with MDA-MB-231 cells [4] and in the data set on Rosi cells [5] was “induced apoptosis” in each case. Moreover, the EC50 was 6.76 µM in the data set on MDA-MB-231 cells [6]; 45.7 µM in the data set with MCF7 cells [7] (Homo sapiens, MCF7, 48 h, read-out: Log [μM] EC50 (converted)); 21900 µM in the data set with Rosi cells [8] (Homo sapiens, 48 h, read-out: Log [μM] EC50 (converted)); 36.3 µM in the data set on HS-5 cells (HS5, 48 h, read-out: Log [μM] EC50 (converted)); 21.4 µM in the data set with HEK-293 cells (Homo sapiens, HEK293, 48 h, read-out: Log [μM] EC50 (converted)). For the same compound, the inhibition of survival entry with MCF7 cells [7] (MCF7, concentrations tested 50-0.31 μM, 48 hours) was “Neither LB-100 nor Compound 2 significantly inhibited survival”. Further, the “concentration at which survival was significantly inhibited” value with Rosi cells [8] (Rosi, 48 hours) is 20 µM; with HEK-293 cells (HEK-293, 48 hours), 20 µM. Moreover, the “concentration at which cytotoxicity was significant” value in the data set with HS-5 cells (human, 48 h) is 20 µM. In addition, the results for the clonogenic colony formation result with MDA-MB-231 cells [9], with Rosi cells [10] and in the data set on MCF7 cells [11] were “inhibited colony formation”, “inhibited colony formation” and “inhibited to a lesser extent”, respectively.
Take `O=C(COc1cccc2ccccc12)Nc1ccccc1O` [Compound 1, N-(2-Hydroxyphenyl)-2-(1-naphthalenyloxy)acetamide]: on rhLCMT-1, the “methylation of rhPP2Ac by rhLCMT-1” value is given as “did not significantly inhibit PP2Ac methylation”. In addition, the PP2Ac methylation entry in the data set on MDA-MB-231 cells [12], in the data set on Rosi cells [13] and in the data set on MCF7 cells [14] was “did not increase PP2Ac methylation” each time. Moreover, in the data set “Plasma protein binding”, the fraction unbound was 0.033. For the same compound, in the data set “Kinetic solubility”, the kinetic solubility was 27.1 µM (≈ 7.95 µg/mL). Also, the half-life in [15] (human liver microsomes, read-out: Liver Microsomal Stability (t1/2) Human) was 45.7 min; in data set [15] (mouse liver microsomes, read-out: Liver Microsomal Stability (t1/2) Mouse) it was 20 min; in “Plasma stability” it was more than 180 min.
